Test results as given in patent US8952024B2, “Herbicidal pyrimidone derivatives” (E I du Pont de Nemours and Company, priority 2009, dated 2015).

Columns and labels:
Format in all cases: in vivo
[1] = tested on: morningglory (Ipomoea spp.); assay: Test A pre-/postemergence plant response
Method in brief: (§1)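 Pre: directed soil spray on seeded loam/sand blend. Post: same formulation (non-phytotoxic solvent + surfactant) on 2–10 cm plants, 1–2 leaf stage. Greenhouse ~10 d; visual injury score 0–100 vs untreated.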

[2] = tested on: giant foxtail (Setaria faberii); assay: Test A pre-/postemergence plant response
Method in brief: as §1

[3] = tested on: pigweed (Amaranthus retroflexus); assay: Test A pre-/postemergence plant response
Method in brief: as §1

[4] = tested on: large crabgrass (Digitaria sanguinalis); assay: Test A pre-/postemergence plant response
Method in brief: as §1

[5] = tested on: corn (Zea mays); assay: Test A pre-/postemergence plant response
Method in brief: as §1

[6] = tested on: velvetleaf (Abutilon theophrasti); assay: Test A pre-/postemergence plant response
Method in brief: as §1

[7] = tested on: wheat (Triticum aestivum); assay: Test A pre-/postemergence plant response
Method in brief: as §1

[8] = tested on: barnyardgrass (Echinochloa crus-galli); assay: Test A pre-/postemergence plant response
Method in brief: as §1

[9] = tested on: bermudagrass (Cynodon dactylon); assay: Test B pre-/postemergence plant response; conditions: for Bermudagrass plant response rating (0 to 100 scale): 62 g ai/ha, 0 is no effect, 13 to 15 days
Method in brief: (§2)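 Seeds sown in loam–sand blend were treated preemergence, and plants at 2–18 cm (1- to 4-leaf stage) in peat-based medium were treated postemergence; compounds were formulated in non-phytotoxic solvent with surfactant. After 13–15 days in greenhouse, response was visually rated against controls, 0 (no effect) to 100 (complete control).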

[10] = tested on: wheat (Triticum aestivum); assay: Test B pre-/postemergence plant response; conditions: for Wheat plant response rating (0 to 100 scale): 62 g ai/ha, 0 is no effect, 13 to 15 days
Method in brief: as §2

[11] = tested on: cocklebur (Xanthium strumarium); assay: Test B pre-/postemergence plant response; conditions: for Cocklebur plant response rating (0 to 100 scale): 62 g ai/ha, 0 is no effect, 13 to 15 days
Method in brief: as §2

[12] = Postemergence, 125 g ai/ha, 0 to 100 scale where 0 is no effect and 100 is complete control
[13] = Postemergence, 500 g ai/ha, 0 to 100 scale, 0 = no effect, 100 = complete control, approx. ten days
[14] = Preemergence, 125 g ai/ha, 0 to 100 scale, 0 = no effect, 100 = complete control
[15] = Preemergence, 500 g ai/ha, visual injury, 0 to 100 scale (0 no effect, 100 complete control), approx. ten days
[16] = 31 g ai/ha, postemergence, scale 0 to 100, 0 is no effect, 100 is complete control
[17] = postemergence, 100 is complete control
[18] = Postemergence, 125 g ai/ha, visual rating after 13 to 15 days, scale 0 (no effect) to 100 (complete control)
[19] = Postemergence, 250 g ai/ha, scale 0 to 100 (0 no effect, 100 complete control)
[20] = Postemergence, 125 g ai/ha, scale 0 to 100 (0 no effect, 100 complete control)

SMILES: O=C1CCCC(O)=C1C(=O)c1cnc(C2CCCC2)n(-c2ccccc2)c1=O [Compound 92]
- Plant response rating, Morningglory [1, 12]: 100
- Plant response rating, Morningglory [1, 13]: 100
- Plant response rating, Morningglory [1, 14]: 0
- Plant response rating, Morningglory [1, 15]: 80
- Plant response rating, Foxtail, Giant [2, 12]: 80
- Plant response rating, Foxtail, Giant [2, 13]: 90
- Plant response rating, Foxtail, Giant [2, 14]: 70
- Plant response rating, Foxtail, Giant [2, 15]: 80
- Plant response rating, Pigweed [3, 12]: 100
- Plant response rating, Pigweed [3, 13]: 100
- Plant response rating, Pigweed [3, 14]: 100
- Plant response rating, Pigweed [3, 15]: 100
- Plant response rating, Crabgrass, Large [4, 12]: 90
- Plant response rating, Crabgrass, Large [4, 13]: 90
- Plant response rating, Crabgrass, Large [4, 14]: 90
- Plant response rating, Crabgrass, Large [4, 15]: 100
- Plant response rating, Corn [5, 12]: 0
- Plant response rating, Corn [5, 13]: 20
- Plant response rating, Corn [5, 14]: 0
- Plant response rating, Corn [5, 15]: 0
- Plant response rating, Velvetleaf [6, 12]: 100
- Plant response rating, Velvetleaf [6, 13]: 100
- Plant response rating, Velvetleaf [6, 14]: 90
- Plant response rating, Velvetleaf [6, 15]: 100
- Plant response rating, Wheat [7, 12]: 0
- Plant response rating, Wheat [7, 13]: 0
- Plant response rating, Wheat [7, 14]: 0
- Plant response rating, Wheat [7, 15]: 0
- Plant response rating, Barnyardgrass [8, 12]: 80
- Plant response rating, Barnyardgrass [8, 13]: 90
- Plant response rating, Barnyardgrass [8, 14]: 60
- Plant response rating, Barnyardgrass [8, 15]: 100
- Plant response rating, Bermudagrass [9, 16]: 20
- Bermudagrass plant response rating (0 to 100 scale) [9, 17]: 80
- Plant response rating, Bermudagrass [9, 18]: 85
- Plant response rating, Bermudagrass [9, 19]: 85
- Plant response rating, Wheat [10, 16]: 0
- Wheat plant response rating (0 to 100 scale) [10, 17]: 0
- Plant response rating, Wheat [10, 19]: 0
- Plant response rating, Cocklebur [11, 16]: 25
- Cocklebur plant response rating (0 to 100 scale) [11, 17]: 80
- Plant response rating, Cocklebur [11, 18]: 98
- Plant response rating, Cocklebur [11, 19]: 98

SMILES: COCCn1c(-c2cccs2)ncc(C(=O)C2=C(O)CCCC2=O)c1=O [Compound 108]
- Plant response rating, Morningglory [1, 12]: 100
- Plant response rating, Morningglory [1, 13]: 100
- Plant response rating, Morningglory [1, 14]: 80
- Plant response rating, Morningglory [1, 15]: 90
- Plant response rating, Foxtail, Giant [2, 12]: 60
- Plant response rating, Foxtail, Giant [2, 13]: 90
- Plant response rating, Foxtail, Giant [2, 14]: 30
- Plant response rating, Foxtail, Giant [2, 15]: 40
- Plant response rating, Pigweed [3, 12]: 100
- Plant response rating, Pigweed [3, 13]: 100
- Plant response rating, Pigweed [3, 14]: 90
- Plant response rating, Pigweed [3, 15]: 100
- Plant response rating, Crabgrass, Large [4, 12]: 90
- Plant response rating, Crabgrass, Large [4, 13]: 90
- Plant response rating, Crabgrass, Large [4, 14]: 70
- Plant response rating, Crabgrass, Large [4, 15]: 90
- Plant response rating, Corn [5, 12]: 0
- Plant response rating, Corn [5, 13]: 40
- Plant response rating, Corn [5, 14]: 0
- Plant response rating, Corn [5, 15]: 0
- Plant response rating, Velvetleaf [6, 12]: 100
- Plant response rating, Velvetleaf [6, 13]: 100
- Plant response rating, Velvetleaf [6, 14]: 80
- Plant response rating, Velvetleaf [6, 15]: 90
- Plant response rating, Wheat [7, 12]: 0
- Plant response rating, Wheat [7, 13]: 0
- Plant response rating, Wheat [7, 14]: 0
- Plant response rating, Wheat [7, 15]: 0
- Plant response rating, Barnyardgrass [8, 12]: 90
- Plant response rating, Barnyardgrass [8, 13]: 90
- Plant response rating, Barnyardgrass [8, 14]: 30
- Plant response rating, Barnyardgrass [8, 15]: 90
- Plant response rating, Bermudagrass [9, 16]: 85
- Bermudagrass plant response rating (0 to 100 scale) [9, 17]: 90
- Plant response rating, Bermudagrass [9, 20]: 100
- Plant response rating, Bermudagrass [9, 19]: 100
- Wheat plant response rating (0 to 100 scale) [10, 17]: 0
- Plant response rating, Wheat [10, 20]: 0
- Plant response rating, Cocklebur [11, 16]: 75
- Cocklebur plant response rating (0 to 100 scale) [11, 17]: 95
- Plant response rating, Cocklebur [11, 20]: 100
- Plant response rating, Cocklebur [11, 19]: 100
